The subject of experiment [1] is HCT116-oxaliplatin resistant spheroids. Briefly: CellTiter-Glo 3D cell viability assay, HCT116-oxaliplatin resistant spheroids. It counts as cell-based. As to conditions: 96 h exposure, 3D CellTiter-Glo. As to the method: (§1) For cell spheroid formation, HCT116-oxaliplatin resistant cells, A2780-cisplatin resistant cells, and HT1080 cells were seeded in Corning® Spheroid opaque-walled 96 well Microplates (ultra-low attachment; Nuclon™ Sphera™, Thermofisher) at densities of 2000 cells/well in 100 μl of cell solution and allowed to grow for 4 days, before any manipulation.
(§2) Spheroid cells were treated by adding 100 μl of 2-fold the desired compound concentration and incubated at 37° C. for 96 h. At the end of drug incubation, both the plates and the CellTitre-Glo® reagent (previously thawn overnight in the fridge) were equilibrated at room temperature for at least 30 min. Subsequently, 100 μl of cell solution were carefully removed from each well, without disrupting the spheroid and equal volume of CellTitre-Glo® reagent was added. Cell lysis was performed by vigorously shaking the plate for 5 min. To stabilize the luminescent signal, the plate was incubated in the dark at RT for another 30 min before luminescence was recorded on a plate reader. The cell viability of treated samples was normalised to the untreated controls.
(§3) The cytotoxicity studies in spheroids were conducted using the CellTiter-Glo® 3D Cell viability assay (Promega) following the instructions of the manufacturer.

The test system of experiment [2] is A2780-cisplatin resistant spheroids. Description: CellTiter-Glo 3D cell viability assay, A2780-cisplatin resistant spheroids. Type of experiment: cell-based. The settings on record: 96 h exposure, 3D CellTiter-Glo. As to the method: as §1
as §2, with “At” for “Spheroid cells were treated by adding 100 μl of 2-fold the desired compound concentration and incubated at 37° C. for 96 h. At”
as §3

Another experiment concerns A549 cells. Description: SRB growth inhibition and combination index with cisplatin, A549. Type of experiment: cell-based, human. As to the method:
(§4) The affected fractions were calculated from the SRB or MTT assay absorbance values and were registered to derive the respective CI values and isobolograms. A CI value of less than 1 (one) indicates synergy.
(§5) The SRB assay was used to assess cell growth inhibition by IE-8 alone and in combination with cisplatin. […] For combination studies drug treatments were sequential with IE-8 applied first followed by cisplatin for 1 h. […] Absorbance was read at 540 nm and results were normalized to untreated controls. For analysis of GC50 values and statistical significance, non-linear regression analysis with a comparison of fits was performed with the GraphPad Prism 6.0 software.
(§6) Drug Combination studies. Sulforhodamine B (SRB) Cell Growth Inhibition Assay. The SRB assay was used to assess cell growth inhibition by 8 h alone and in combination with cisplatin. […] For combination studies drug treatments were sequential with 8 h applied first followed by cisplatin for 1 h. […] Absorbance was read at 540 nm and results were normalized to untreated controls. For analysis of GC50 values and statistical significance, non-linear regression analysis with a comparison of fits was performed with the GraphPad Prism 6.0 software.

The next experiment concerns DU145 cells. Briefly: SRB growth inhibition and combination index with cisplatin, DU145. Type of experiment: cell-based. The method, then: as §4, §5, §6
In experiment [3] the test system is A2780-cisplatin resistant spheroids. Briefly: Spheroid diameter measurement. Type of experiment: cell-based. The settings on record: 96 h. The method, then:
as §1
The diameters of spheroid cells were determined using Cell^F Imaging Software. A diameter corresponds to the mean value of one horizontal and one vertical measurement.

In experiment [4] the test system is HCT116-oxaliplatin resistant cells. Briefly: Colony formation assay with oxaliplatin. Type of experiment: cell-based. As to conditions: 1 μM oxaliplatin alone, 10 days. The method, then:
HCT116-oxaliplatin res cells were seeded at 2000 cells/well in 6-well plates and allowed to adhere overnight. The next day, oxaliplatin and IE-8 were added simultaneously. First, the specific amount of cells solution was removed from each well and afterwards the same volume of the appropriate drug dilution was added to achieve the right concentration. IE-8 was diluted in DMA. Cells were also treated with Oxaliplatin and IE-8 alone. The plates were left the incubator and the cells were allowed to grow colonies for 10 days. After 10 days the entire cell solution was removed from each well, which was subsequently washed with 500 μl of PBS. 1 ml of cold 100% methanol was added and the plates were incubated for 30 minutes at 4 C. After a second wash, the cells were stained with 1 ml of […] staining dye for 2-3 minutes, rinsed with water, allowed to dry overnight and the colonies were quantified using a gel imaging system (Fusion Fx7) and its in-built colony counter software.

The test system of the next experiment is pStat3^Tyr705. Description: Immunoblotting of phosphorylated Stat3 in cancer cells. It counts as cell-based, human. The settings on record: DU145 and A549 cells with constitutively active Stat3, 18 h. As to the method:
(§7) Whole cell lysates were prepared by incubation of harvested, trypsinised cells with CelLytic™ lysis buffer (Sigma-Aldrich) supplemented with 1× protease and 1× phosphatase inhibitors (Roche). Protein quantification was carried out using a protein assay kit (Bio-Rad). 40 μg of the lysates were denatured by heating for 5 min at 95° C. in sample buffer containing 100 mM Tris-Cl (pH 6.8), 4% SDS, 10% 2-mercaptoethanol, 20% glycerol, and 0.02% bromophenol blue. Precision Plus Protein Dual colour standards (Bio-Rad) were used as a molecular weight reference. For the detection of STAT3, pSTAT3, α/β tubulin, cleaved PARP, Bcl-2, Bcl-xL, FANCD2, BRCA1, EME1 and MUS81, proteins were separated on a NuPAGE 7% Tris-acetate gel (Life Technologies) and subsequently transferred to polyvinylidene difluoride membranes (Immobilon®-P transfer membrane; Millipore). […] Membranes were blocked for 1 h at ambient temperature in a blocking buffer containing 5% w/v Bovine Serum Albumin (BSA; Sigma-Aldrich) in 1×TBS, 0.1% Tween-20. All proteins were identified by incubation in a 1:1000 dilution of the respective polyclonal antibodies (Cell signaling) in blocking buffer overnight at 4° C. and subsequent incubation for 1 h with an anti-rabbit or anti-mouse secondary antibody (Cell signalling) at a dilution of 1:1000. The α/β tubulin (1:2000; Cell Signaling) and the anti-phospho-histone H2AX Antibody (1:500; Millipore) were used in the denoted dilutions. Antibody binding was visualized by enhanced chemiluminescence (Amersham) on autoradiography film (Kodak-X-Omat). Alternatively Images were captured by the GelDoc-It Imaging System Fusion Fx7 (Vilber Lourmat, Germany).
as §7, with “Immunoblotting. Whole” for “Whole”, “CelLytic™ M” for “CelLytic™”, “pSTAT3, a/0” for “pSTAT3, α/β”, “in 1×TBS” for “in 1×TBS,”, “(Cell signalling)” for “(Cell signaling)”

Setting [5] is: cisplatin alone 1 h, 96 h total, SRB.

The structures appear in SMILES notation. Several values for one entry are separate records, joined by “and”; a condition that tells them apart may be missing. Equal entries are not always repeated.

The values that follow come from patent US11964943B2, “3,5-diarylidenyl-n-substituted-piperid-4-one-derived inhibitors of Stat3 pathway activity and uses thereof” (priority 2017, dated 2024).

Take `O=C1C(O)=C([C@H]2CC[C@H](c3ccc(Cl)cc3)CC2)C(=O)c2ccccc21` [Atovaquone, reference compound]: the IC50 (as a rule, the concentration that inhibits the measured activity by half) in experiment [1] worked out at 16.5 µM; in experiment [2], 24.4 ± 3.36 µM.
Regarding `N.N.[Cl][Pt][Cl]` [Cisplatin, reference compound], the IC50 in the experiment on A549 cells (setting [5]) is 77.8 µM and 64.6 µM; with DU145 cells (setting [5]), 49.2 µM and 49.3 µM. In addition, the “Diameter (μm)” value in experiment [3] (cisplatin 1.75 μM) came to 1071.4 μm; in experiment [3] (cisplatin 3.5 μM), 1047.5 μm; in experiment [3] (cisplatin 5.25 μM) it was 916.4 μm; in experiment [3] (cisplatin 7.0 μM), 833.6 μm; in experiment [3] (cisplatin 7.0 μM, listed as cisplatin), 834 μm; in experiment [3] (cisplatin 8.75 μM), 713.0 μm.
With `CC1(C)C=C(CN2C/C(=C\c3ccc(F)cc3)C(=O)/C(=C/c3ccc(F)cc3)C2)C(C)(C)N1O` [HO-3867, reference compound], the figures for the IC50 in experiment [1] and in experiment [2] were 33 µM and 29.7 ± 7.81 µM, respectively.
Take `O=C(O)C(=O)O.[NH-][C@@H]1CCCC[C@H]1[NH-].[Pt+2]` [Oxaliplatin, reference compound]: the number of colonies result in experiment [4] was “about 260”.
Regarding `O=[N+]([O-])c1ccc2c(c1)S(=O)(=O)C=C2` [Stattic], in the experiment on pStat3^Tyr705, the “inhibition of Stat3 tyrosine (705) phosphorylation (pStat3)” value was “much higher doses are required”. Moreover, the “combination index analysis with cisplatin” value is listed as “lower levels of synergy” in the experiment on A549 cells (stattic:cisplatin ratio 1:5) and “lower levels of synergy within a narrower range of doses” in the experiment with DU145 cells (stattic:cisplatin ratio 1:5). This compound yielded an IC50 in experiment [2] of 9.14 ± 2.74 µM.
